From the NIST ThermoML archive (doi:10.1016/j.tca.2015.12.010)
± gives the expanded uncertainty stated by the source.

What was measured:
[1] = Molar enthalpy of transition or fusion; conditions: Crystal; DSC
[2] = Crystal

| SMILES | Molar enthalpy of transition or fusion [1] [kJ/mol] | Normal melting temperature ([2]; DTA) [°C] | Normal melting temperature ([2]; Infrared thermography) [°C] |
| --- | --- | --- | --- |
| OC[C@@H](O)[C@@H](O)[C@@H](O)CO [SRS-1,2,3,4,5-pentanepentol] | 35.3 ± 0.91 | 100.00 ± 1.1 | 101.60 ± 10 |
| OC[C@@H](O)[C@@H](O)CO [meso-1,2,3,4-butanetetrol] | 41.5 ± 1.1 | 118.90 ± 1.1 | 121.20 ± 10 |

Other lines, results leading:

| Molar enthalpy of transition or fusion [1] [kJ/mol] | Normal melting temperature ([2]; DTA) [°C] | Normal melting temperature ([2]; Infrared thermography) [°C] | SMILES |
| --- | --- | --- | --- |
| 57.6 ± 1.5 | 167.10 ± 2.1 | 166.00 ± 10 | OC[C@@H](O)[C@@H](O)[C@H](O)[C@H](O)CO [D-mannitol] |
| 64.9 ± 1.6 | 187.30 ± 0.5 | 189.50 ± 10 | OC[C@@H](O)[C@H](O)[C@H](O)[C@@H](O)CO [dulcitol] |
| 38.2 ± 1.1 | 95.10 ± 1.1 | 99.00 ± 10 | OC[C@@H](O)[C@H](O)[C@@H](O)CO [xylitol] |
